Test results from ChEMBL document CHEMBL3085714 (J Med Chem, 2013).

Key:
Homo sapiens [1] = species: Homo sapiens; experiment: Selectivity for p38alpha MAP kinase (unknown origin) over VEGF-R1 (unknown origin)
Homo sapiens [2] = species: Homo sapiens; experiment: Selectivity for p38alpha MAP kinase (unknown origin) over TIE2 (unknown origin)
Homo sapiens [3] = species: Homo sapiens; experiment: Selectivity for p38alpha MAP kinase (unknown origin) over STK25 (unknown origin)
Homo sapiens [4] = species: Homo sapiens; experiment: Selectivity for p38alpha MAP kinase (unknown origin) over STK23 (unknown origin)
Homo sapiens [5] = species: Homo sapiens; experiment: Selectivity for p38alpha MAP kinase (unknown origin) over SRPK1 (unknown origin)
Homo sapiens [6] = species: Homo sapiens; experiment: Selectivity for p38alpha MAP kinase (unknown origin) over SNF1LK2 (unknown origin)
Homo sapiens [7] = species: Homo sapiens; experiment: Selectivity for p38alpha MAP kinase (unknown origin) over ROS (unknown origin)
Homo sapiens [8] = species: Homo sapiens; experiment: Selectivity for p38alpha MAP kinase (unknown origin) over RON (unknown origin)
Homo sapiens [9] = species: Homo sapiens; experiment: Selectivity for p38alpha MAP kinase (unknown origin) over BTK (unknown origin)
Homo sapiens [10] = species: Homo sapiens; experiment: Selectivity for p38alpha MAP kinase (unknown origin) over Aurora-B (unknown origin)
Homo sapiens [11] = species: Homo sapiens; experiment: Selectivity for p38alpha MAP kinase (unknown origin) over ASK1 (unknown origin)
Homo sapiens [12] = species: Homo sapiens; experiment: Selectivity for p38alpha MAP kinase (unknown origin) over ACK1 (unknown origin)
Homo sapiens [13] = species: Homo sapiens; experiment: Selectivity for p38alpha MAP kinase (unknown origin) over ABL1 E255K mutant (unknown origin)
Homo sapiens [14] = species: Homo sapiens; experiment: Selectivity for p38alpha MAP kinase (unknown origin) over ROCK2 (unknown origin)
Homo sapiens [15] = species: Homo sapiens; experiment: Selectivity for p38alpha MAP kinase (unknown origin) over ROCK1 (unknown origin)
Homo sapiens [16] = species: Homo sapiens; experiment: Selectivity for p38alpha MAP kinase (unknown origin) over RIPK2 (unknown origin)
Homo sapiens [17] = species: Homo sapiens; experiment: Selectivity for p38alpha MAP kinase (unknown origin) over RET V804L mutant (unknown origin)
Homo sapiens [18] = species: Homo sapiens; experiment: Selectivity for p38alpha MAP kinase (unknown origin) over RAF1 Y340D/Y341D double mutant (unknown origin)
Homo sapiens [19] = species: Homo sapiens; experiment: Selectivity for p38alpha MAP kinase (unknown origin) over PYK2 (unknown origin)
Homo sapiens [20] = species: Homo sapiens; experiment: Selectivity for p38alpha MAP kinase (unknown origin) over PKC-iota (unknown origin)
Homo sapiens [21] = species: Homo sapiens; experiment: Selectivity for p38alpha MAP kinase (unknown origin) over PKC-beta2 (unknown origin)
Homo sapiens [22] = species: Homo sapiens; experiment: Selectivity for p38alpha MAP kinase (unknown origin) over PKC-beta1 (unknown origin)
Homo sapiens [23] = species: Homo sapiens; experiment: Selectivity for p38alpha MAP kinase (unknown origin) over PDGFR-beta (unknown origin)
Homo sapiens [24] = species: Homo sapiens; experiment: Selectivity for p38alpha MAP kinase (unknown origin) over PDGFR-alpha V561D mutant (unknown origin)
Homo sapiens [25] = species: Homo sapiens; experiment: Selectivity for p38alpha MAP kinase (unknown origin) over PASK (unknown origin)
Homo sapiens [26] = species: Homo sapiens; experiment: Selectivity for p38alpha MAP kinase (unknown origin) over PAK1 (unknown origin)
Homo sapiens [27] = species: Homo sapiens; experiment: Selectivity for p38alpha MAP kinase (unknown origin) over NEK4 (unknown origin)
[28] = target: T1, Mitogen-activated protein kinase 14 (Homo sapiens, UniProt Q16539); experiment: Competitive inhibition of p38alpha MAP kinase (unknown origin) in presence of 300 uM ATP
T1 sequence (Q16539 whole entry): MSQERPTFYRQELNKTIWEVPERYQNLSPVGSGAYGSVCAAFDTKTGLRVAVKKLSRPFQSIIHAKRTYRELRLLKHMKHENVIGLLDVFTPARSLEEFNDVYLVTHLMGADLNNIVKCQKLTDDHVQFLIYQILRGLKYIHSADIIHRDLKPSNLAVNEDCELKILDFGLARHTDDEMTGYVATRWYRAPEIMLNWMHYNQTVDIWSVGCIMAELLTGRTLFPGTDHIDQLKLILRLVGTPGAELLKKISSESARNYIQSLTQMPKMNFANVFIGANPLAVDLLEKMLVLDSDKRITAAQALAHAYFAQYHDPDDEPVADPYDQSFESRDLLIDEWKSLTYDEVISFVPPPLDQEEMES

[29] = target: T1, Mitogen-activated protein kinase 14; experiment: Inhibition of p38alpha MAP kinase in human whole blood assessed as inhibition of LPS-induced TNFalpha release by ELISA
[30] = target: T1, Mitogen-activated protein kinase 14; experiment: Competitive inhibition of p38alpha MAP kinase (unknown origin) at 10 uM in presence of 100 uM ATP
Homo sapiens [31] = species: Homo sapiens; experiment: Selectivity for p38alpha MAP kinase (unknown origin) over MINK1 (unknown origin)
Homo sapiens [32] = species: Homo sapiens; experiment: Selectivity for p38alpha MAP kinase (unknown origin) over MERTK (unknown origin)
Homo sapiens [33] = species: Homo sapiens; experiment: Selectivity for p38alpha MAP kinase (unknown origin) over MEK1 (unknown origin)
Homo sapiens [34] = species: Homo sapiens; experiment: Selectivity for p38alpha MAP kinase (unknown origin) over LCK (unknown origin)
Homo sapiens [35] = species: Homo sapiens; experiment: Selectivity for p38alpha MAP kinase (unknown origin) over JAK3 (unknown origin)
Homo sapiens [36] = species: Homo sapiens; experiment: Selectivity for p38alpha MAP kinase (unknown origin) over IRAK1 (unknown origin)
Homo sapiens [37] = species: Homo sapiens; experiment: Selectivity for p38alpha MAP kinase (unknown origin) over IKK-alpha (unknown origin)
Homo sapiens [38] = species: Homo sapiens; experiment: Selectivity for p38alpha MAP kinase (unknown origin) over HCK (unknown origin)
Homo sapiens [39] = species: Homo sapiens; experiment: Selectivity for p38alpha MAP kinase (unknown origin) over wild type FLT3 (unknown origin)
Homo sapiens [40] = species: Homo sapiens; experiment: Selectivity for p38alpha MAP kinase (unknown origin) over FLT3 ITD (unknown origin)
Homo sapiens [41] = species: Homo sapiens; experiment: Selectivity for p38alpha MAP kinase (unknown origin) over FLT3 D835Y mutant (unknown origin)
Homo sapiens [42] = species: Homo sapiens; experiment: Selectivity for p38alpha MAP kinase (unknown origin) over FGF-R2 (unknown origin)
Homo sapiens [43] = species: Homo sapiens; experiment: Selectivity for p38alpha MAP kinase (unknown origin) over ERBB4 (unknown origin)
Homo sapiens [44] = species: Homo sapiens; experiment: Selectivity for p38alpha MAP kinase (unknown origin) over EPHB4 (unknown origin)
Homo sapiens [45] = species: Homo sapiens; experiment: Selectivity for p38alpha MAP kinase (unknown origin) over EPHB1 (unknown origin)
Homo sapiens [46] = species: Homo sapiens; experiment: Selectivity for p38alpha MAP kinase (unknown origin) over CK1-alpha1 (unknown origin)

Cc1cc(F)c(NC(=O)c2ccsc2)cc1Nc1ccc2c(c1)OCc1ccc(OC[C@H](O)CO)cc1C2=O
125 nM: IC50 [29]
4 nM: IC50 [28]
> 50%: inhibition [30]
> 1000: Selectivity ratio (Homo sapiens [1]) | Selectivity ratio (Homo sapiens [2]) | Selectivity ratio (Homo sapiens [3]) | Selectivity ratio (Homo sapiens [4]) | Selectivity ratio (Homo sapiens [5]) | Selectivity ratio (Homo sapiens [6]) | Selectivity ratio (Homo sapiens [7]) | Selectivity ratio (Homo sapiens [8]) | Selectivity ratio (Homo sapiens [9]) | Selectivity ratio (Homo sapiens [10]) | Selectivity ratio (Homo sapiens [11]) | Selectivity ratio (Homo sapiens [12]) | Selectivity ratio (Homo sapiens [13]) | Selectivity ratio (Homo sapiens [14]) | Selectivity ratio (Homo sapiens [15]) | Selectivity ratio (Homo sapiens [16]) | Selectivity ratio (Homo sapiens [17]) | Selectivity ratio (Homo sapiens [18]) | Selectivity ratio (Homo sapiens [19]) | Selectivity ratio (Homo sapiens [20]) | Selectivity ratio (Homo sapiens [21]) | Selectivity ratio (Homo sapiens [22]) | Selectivity ratio (Homo sapiens [23]) | Selectivity ratio (Homo sapiens [24]) | Selectivity ratio (Homo sapiens [25]) | Selectivity ratio (Homo sapiens [26]) | Selectivity ratio (Homo sapiens [27]) | Selectivity ratio (Homo sapiens [31]) | Selectivity ratio (Homo sapiens [32]) | Selectivity ratio (Homo sapiens [33]) | Selectivity ratio (Homo sapiens [34]) | Selectivity ratio (Homo sapiens [35]) | Selectivity ratio (Homo sapiens [36]) | Selectivity ratio (Homo sapiens [37]) | Selectivity ratio (Homo sapiens [38]) | Selectivity ratio (Homo sapiens [39]) | Selectivity ratio (Homo sapiens [40]) | Selectivity ratio (Homo sapiens [41]) | Selectivity ratio (Homo sapiens [42]) | Selectivity ratio (Homo sapiens [43]) | Selectivity ratio (Homo sapiens [44]) | Selectivity ratio (Homo sapiens [45]) | Selectivity ratio (Homo sapiens [46])
